The source of these data is US10632148B2, “Growth control of oral and superficial organisms using gallium compounds” (MOUNT SINAI SCHOOL OF MEDICINE, priority 2005, dated 2020).

The subject of one data set is Pseudomonas aeruginosa. The experiment in a line: Susceptibility to gallium nitrate, MIC/MBC, macrodilution broth method. In kind it is cell-based, Pseudomonas aeruginosa ATCC 15442. The settings on record: Muller Hinton broth, tryptic soy agar with 5% sheep blood, 36° C. for 48 hours, 7.6 × 10^5 CFU/ml.
For data set [1] the following is noted: healthy adults, intravenous infusion for at least 7 days; cited from earlier work.
The subject of the next data set is Candida albicans. As to the kind of experiment: Susceptibility to gallium nitrate, MIC/MBC, microdilution broth method. The data set is classed as cell-based, Candida albicans ATCC 10231. To be noted: 27° C. for 48 hours, 9.75 × 10^5 CFU/ml. The procedure: (§1) Susceptibility of various microorganisms to gallium was tested by determining the minimum inhibitory concentration (MIC) and minimum bactericidal concentration (MBC) for each microorganism using gallium nitrate. In general, MIC is determined by (i) mixing a series of broths, each containing a standard number of microorganisms, with serially diluted solutions of the gallium compound; and (ii) determining the MIC, after incubation, that is the lowest concentration of the gallium compound that has inhibited the growth of the microorganism. The lower the MIC, the more susceptible the organism is. The MBC is determined by subculturing an aliquot of each sample from the MIC test on an appropriate agar plate containing no gallium compound. After incubation, the MBC is determined to be the lowest concentration of the gallium compound at which no growth is observed.
(§2) Specifically, in the present experiment, two grams of gallium nitrate powder were dissolved in 10 ml of filter-sterilized deionized water and the resulting 20% (w/v) (i.e., 200 mg/ml) solution was once again filter-sterilized. […]
(§3) The growth of the microorganisms were determined by visual observation of turbidity in the samples. […]
Background: Broth dilution looks for growth in wells or tubes with falling amounts of substance.

The next data set deals with Streptococcus mutans. Described as above. The data set is classed as cell-based, Streptococcus mutans ATCC 25175. The settings on record: Brain Heart Infusion broth, blood agar, 36° C. for 48 hours, 4.1 × 10^6 CFU/ml. The procedure:
as §1, §2, §3

Data set [2] relates to Vancomycin-resistant Enterococcus faecalis (VRE). The experiment in a line: Susceptibility to gallium nitrate, MIC/MBC, macrodilution broth method. In kind it is cell-based, Enterococcus faecalis ATCC 51575. The settings on record: Muller Hinton broth, tryptic soy agar with 5% sheep blood, 36° C. for 48 hours, 3.9 × 10^5 CFU/ml.
The test system of another data set is Campylobacter jejuni. The experiment in a line: Susceptibility to gallium nitrate, MIC/MBC, microdilution broth method. To be noted: Muller Hinton broth, tryptic soy agar with 5% sheep blood, 36° C. for 48 hours, 4.9 × 10^5 CFU/ml. The data set is classed as cell-based, Campylobacter jejuni ATCC 29428. The procedure: as §1, §2, §3
A further data set deals with Porphyromonas gingivalis. The data set is classed as cell-based, Porphyromonas gingivalis ATCC 33277.
Data set [3] has as its system Methicillin-resistant Staphylococcus aureus (MRSA). As to the kind of experiment: Susceptibility to gallium nitrate, MIC/MBC, macrodilution broth method. The data set is classed as cell-based, Staphylococcus aureus ATCC 33592. To be noted: Muller Hinton broth, tryptic soy agar with 5% sheep blood, 36° C. for 48 hours, 5.2 × 10^5 CFU/ml.
A further data set has as its system Salmonella typhi. The data set is described as above. To be noted: Muller Hinton broth, tryptic soy agar with 5% sheep blood, 36° C. for 48 hours, 8.3 × 10^5 CFU/ml. The data set is classed as cell-based, Salmonella typhi ATCC 6539.
The test system of the next data set is Escherichia coli O157:H7. The experiment in a line: Susceptibility to gallium nitrate, MIC/MBC, microdilution broth method. In kind it is cell-based, Escherichia coli O157:H7 ATCC 35150. The settings on record: Muller Hinton broth, tryptic soy agar with 5% sheep blood, 36° C. for 48 hours, 1.38 × 10^6 CFU/ml. The procedure:
as §1, §2, §3

Usually MIC stands for the smallest concentration in the dilution series that meets the test's criterion for growth inhibition. A higher MIC goes with a less susceptible organism. In the case of `O=[N+]([O-])[O-].O=[N+]([O-])[O-].O=[N+]([O-])[O-].[Ga+3]` [gallium nitrate], the MBC in the data set with Pseudomonas aeruginosa was 6250 µg/mL; in the data set on Candida albicans (Sabouraud dextrose agar) it was more than 100000 µg/mL; against Streptococcus mutans, 5000 µg/mL; in data set [2] it was 25000 µg/mL; in the data set with Campylobacter jejuni, less than 780 µg/mL; in the data set on Porphyromonas gingivalis it was less than 780 µg/mL. For the same compound, the figures for the MBC (in [3]; with Salmonella typhi; against Escherichia coli O157:H7) were 12500 µg/mL, 6250 µg/mL and 6250 µg/mL, respectively. Also, the tolerated dose entry in data set [1] is “at least 200 mg/m^2/day”. In the data set with Candida albicans (Sabouraud Dextrose broth), this compound yielded an MIC of 10000 µg/mL.
